Test results published in US20090082372A1, “Arylmethylene Substituted N-Acyl-Beta-Amino Alcohols” (priority 2007, published 2009).

Biological target: T1, human FSH receptor (Homo sapiens, UniProt P23945)
T1 construct: expressed in transfected cells; host or cells: CHO cells (hFSHR clone 16)
T1 sequence (P23945 18-695): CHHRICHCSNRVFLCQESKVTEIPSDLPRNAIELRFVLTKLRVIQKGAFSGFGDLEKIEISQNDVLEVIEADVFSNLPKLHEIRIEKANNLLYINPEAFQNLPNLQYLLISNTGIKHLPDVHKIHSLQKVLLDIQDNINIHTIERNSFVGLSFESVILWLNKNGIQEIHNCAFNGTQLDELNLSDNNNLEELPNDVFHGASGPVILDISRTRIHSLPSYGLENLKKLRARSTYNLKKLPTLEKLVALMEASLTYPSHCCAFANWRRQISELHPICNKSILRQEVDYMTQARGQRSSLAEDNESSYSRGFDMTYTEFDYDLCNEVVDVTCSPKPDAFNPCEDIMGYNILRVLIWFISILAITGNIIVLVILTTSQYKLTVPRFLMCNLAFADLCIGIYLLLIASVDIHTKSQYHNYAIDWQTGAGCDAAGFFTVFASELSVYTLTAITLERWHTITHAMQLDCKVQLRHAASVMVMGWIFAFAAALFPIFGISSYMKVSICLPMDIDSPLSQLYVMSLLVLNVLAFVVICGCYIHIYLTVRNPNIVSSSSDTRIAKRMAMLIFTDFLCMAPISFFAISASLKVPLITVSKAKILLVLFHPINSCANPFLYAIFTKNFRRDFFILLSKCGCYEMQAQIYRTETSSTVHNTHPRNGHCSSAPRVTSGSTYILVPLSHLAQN
Assay: HTRF assay for measuring cAMP in cells (FSH antagonism)
Assay type: cell-based
Conditions: hFSHR clone 16 cells (CHO cells stably transfected with the human FSH receptor); in the presence of 1e-9 mol/l hFSH; 37° C. for 2 h; read-out: IC50 (FSH-antagonistic effect in the HTRF assay)
Experimental: HTRF Assay for Measuring cAMP in Cells
The method is based on a competitive immunoassay between native cAMP, which has been produced by the cells, and cAMP which is labelled with XL665. The tracer binding was visualized by a monoclonal antibody, anti-cAMP labelled with cryptate [HTRF=homogeneous time-resolved fluorescence].
The specific signal is inversely proportional to the cAMP concentration of the samples employed. The 665 nm/620 nm fluorescence ratio was evaluated.
The following material was used: 96-well plates for the tissue culture, 96-well plates with black edge and black base (e.g. Fluotrac 600 from Greiner), 96-well plates for the substance dilutions of polypropylene and cAMP Femtomolar (4000 wells Kit, CIS Bio International #62AM1PEC).
The following reagents were used: BSA (bovine serum albumin) Fraction V protease-free, IBMX (3-isobutyl-1-methylxanthine), hFSH (human follicle stimulating hormone), Triton X-100 analytical grade, potassium fluoride analytical grade, G 418 (Geneticin) and Accutase.
Buffer 1 (washing and testing buffer) contained PBS, 1 mM CaCl2, 1 mM MgCl2, 0.2% glucose; 0.1% BSA, 1 mM IBMX. Buffer 2 (2× lysis buffer) contained 1% Triton X-100 in PBS (without CaCl2 and MgCl2). Buffer 3 (assay buffer) contained 50 mM potassium phosphate buffer (pH 7.0); 800 mM potassium fluoride; 0.2% BSA (always added fresh).
On day 1, the cells were seeded in 96-well plates (3×10^4 cells per well hFSHR clone 16 cells (CHO cells stably transfected with the human FSH receptor in 150 μl of medium).
The next day, test substance dilutions were made up. For this purpose, all the substances were diluted in ice-cold buffer 1 (with or without hFSH), and the substance dilutions were placed on ice until applied to the cells.
The cell supernatant was then aspirated off, and the cells were washed 2× with 200 μl of buffer 1. The cells were treated with 60 μl of the appropriate substance concentrations at 37° C. for 2 h. The cells were then lysed with 60 μl of buffer 2 (put onto the supernatant) (on a plate shaker at RT for 30 min).
The test conjugates (XL-665 and anti-cAMP cryptate) were diluted in buffer 3 in accordance with the manufacturers' information. The actual mixture for measurement was pipetted into a black 96-well plate (in each case 15 μl of the cell lysate diluted with 35 μl of buffer 1; firstly 25 μl of XL-665 conjugate were pipetted and, after 10 min, 25 μl of the anti-cAMP cryptate were added). This is followed by incubation at RT for 90 minutes. The measurement was carried out in a PheraStar (BMG).
Dose-effect curve (hFSH) for the human receptor: 1e-8, 3e-9, 1e-9, 3e-10, 1e-10, 3e-11, 1e-11, 3e-12 mol/l.
The test substances were employed in suitable dilutions in the absence (test for agonism) and in the presence of 1e-9 mol/l hFSH.
The values of the well ratio were averaged and then entered directly in SigmaPlot versus the concentrations. The maximum and minimum values were determined for each plate, and half the difference is to be regarded as IC50.

Compound	IC50 [µM]
CNC(=O)c1ccc(C#Cc2ccc(OC(F)(F)F)c(C(=O)N[C@@H](CO)Cc3n[nH]c4cccc(F)c34)c2)cc1 (stereo in doubt) [Example 16, N-[2-hydroxy-1-(4-fluoro-1H-indazol-3-ylmethyl)-ethyl]-2-trifluoromethoxy-5-[(4-methylaminocarbonyl-phenyl)-ethynyl]-benzamide]	9
CNC(=O)c1cc(F)cc(-c2ccc(OC(C)C)c(C(=O)NC(CO)Cc3c[nH]c4ncccc34)c2)c1 (centres unmarked) [Example 1, 5′-Fluoro-4-isopropoxy-biphenyl-3,3′-dicarboxylic acid 3-{[2-hydroxy-1-(1H-pyrrolo[2,3-b]pyridin-3-ylmethyl)-ethyl]-amide}3′-methylamide]	1.5
COc1ccccc1C#Cc1ccc(OC(C)C)c(C(=O)NC(CO)Cc2c[nH]c3ncccc23)c1 (centres unmarked) [Example 3, N-[1-Hydroxymethyl-2-(1H-pyrrolo[2,3-b]pyridin-3-yl)-ethyl]-2-isopropoxy-5-(2-methoxy-phenylethynyl)-benzamide]	4
CNC(=O)c1ccc(-c2cc3c(c(C(=O)NC(CO)Cc4c[nH]c5ncccc45)c2)OC(C)(C)C=C3)cc1Cl (centres unmarked) [Example 5, 6-(3-Chloro-4-methylcarbamoyl-phenyl)-2,2-dimethyl-2H-chromene-8-carboxylic acid [2-hydroxy-1-(1H-pyrrolo[2,3-b]pyridin-3-ylmethyl)-ethyl]-amide]	0.065
COc1ccc2nc(-c3cc(OC)c(OC)c(OC)c3)cc(C(=O)N[C@@H](CO)Cc3csc4ccccc34)c2c1 [Example 6, 6-Methoxy-2-(3,4,5-trimethoxy-phenyl)-quinoline-4-carboxylic acid ((R)-2-benzo[b]-thiophen-3-yl-1-hydroxy-methyl-ethyl)-amide]	6
COc1ccc2nc(-c3cc(OC)c(OC)c(OC)c3)cc(C(=O)N[C@@H](CO)Cc3ccc4ccccc4c3)c2c1 [Example 9, 6-Methoxy-2-(3,4,5-trimethoxy-phenyl)-quinoline-4-carboxylic acid ((R)-2-hydroxy-1-naphthalen-2-ylmethyl-ethyl)-amide]	8
COc1ccc2nc(-c3cc(OC)c(OC)c(OC)c3)cc(C(=O)NC(CO)Cc3ccc4ccccc4c3)c2c1 (centres unmarked) [Example 12, 6-Methoxy-2-(3,4,5-trimethoxy-phenyl)-quinoline-4-carboxylic acid (2-hydroxy-1-naphthalen-2-ylmethyl-ethyl)-amide]	10
CNC(=O)c1ccc(-c2ccc(OC(F)(F)F)c(C(=O)N[C@@H](CO)Cc3n[nH]c4c(F)cccc34)c2)cc1Cl [Example 14, 3′-Chloro-4-trifluoromethoxy-biphenyl-3,4′-dicarboxylic acid 3-{[2-hydroxy-1-(7-fluoro-1H-indazol-3-ylmethyl)-ethyl]-amide}4′-methylamide]	5
COc1ccc2nc(-c3ccc(OC)c(F)c3)nc(C(=O)NC(CO)Cc3c[nH]c4cccnc34)c2c1 (centres unmarked) [Example 21, 2-(3-Fluoro-4-methoxy-phenyl)-6-methoxy-quinazoline-4-carboxylic acid [2-hydroxy-1-(1H-pyrrolo[3,2-b]pyridin-3-ylmethyl)-ethyl]-amide]	5
COc1ccccc1C#Cc1ccc(OC(C)C)c(C(=O)NC(CO)Cc2c[nH]c3cccnc23)c1 (centres unmarked) [Example 22, N-[1-Hydroxymethyl-2-(1H-pyrrolo[3,2-b]pyridin-3-yl)-ethyl]-2-isopropoxy-5-(2-methoxy-phenylethynyl)-benzamide]	0.2
CNC(=O)c1cc(F)cc(-c2ccc(OC(C)C)c(C(=O)NC(CO)Cc3cc4ncccc4[nH]3)c2)c1 (centres unmarked) [Example 24, 5′-Fluoro-4-isopropoxy-biphenyl-3,3′-dicarboxylic acid 3-{[1-hydroxymethyl-2-(1H-pyrrolo[3,2-b]pyridin-2-yl)-ethyl]-amide}3′-methyl amide]	0.07
COc1ccc(-c2cc3c(c(C(=O)NC(CO)Cc4c[nH]c5cccnc45)c2)OCCCC3)cc1OC (centres unmarked) [Example 26, 7-(3,4-Dimethoxy-phenyl)-2,3,4,5-tetrahydro-benzo[b]oxepine-9-carboxylic acid [1-hydroxymethyl-2-(1H-pyrrolo[3,2-b]pyridin-3-yl)-ethyl]-amide]	1
CNC(=O)c1ccc(-c2ccc(OC(C)C)c(C(=O)NC(CO)Cc3c[nH]c4cnccc34)c2)cc1Cl (centres unmarked) [Example 39, 3′-Chloro-4-isopropoxy-biphenyl-3,4′-dicarboxylic acid 3-{[2-hydroxy-1-(1H-pyrrolo[2,3-c]pyridin-3-ylmethyl)-ethyl]-amide}4′-methylamide]	6.5
COc1ccccc1C#Cc1ccc(OC(C)C)c(C(=O)NC(CO)Cc2c[nH]c3cnccc23)c1 (centres unmarked) [Example 42, N-[2-Hydroxy-1-(1H-pyrrolo[2,3-c]pyridin-3-ylmethyl)-ethyl]-2-isopropoxy-5-(2-methoxy-phenylethynyl)-benzamide]	5
